{
  "source": "patent US20110034504A1",
  "about": "“AGENT FOR PREVENTING AND/OR TREATING VASCULAR DISEASES” (Astellas Pharma Inc., priority 2008, published 2011)",
  "key": {"[1]": {"details": "combination use of aspirin and clopidogrel, cited from earlier work"}, "gastric mucosa": {"tested_on": "gastric mucosa", "experiment": "influence of drugs upon gastric mucosa in normal guinea pigs", "format": "in vivo, guinea pig", "details": "for gastric mucosal lesion (length): 3 hours after administration", "method": "Examination of the influence of drugs exerting upon gastric mucosa was carried out using normal guinea pigs. Using 0.5% methyl cellulose solution as the vehicle, clopidogrel solution, aspirin suspension and Compound A suspension were prepared. […] Also, in the evaluation at the time of concomitant administration of clopidogrel with aspirin or Compound A, in addition to 3 mg/kg of clopidogrel, 300 mg/kg of aspirin was simultaneously administered in the aspirin concomitant use group, and 100 mg/kg of Compound A in the Compound A concomitant use group. After 3 hours of the administration, each guinea pig was sacrificed by deep anesthesia with carbon dioxide, and the stomach was quickly removed. The gullet part of the extracted stomach was ligated, 15 ml of 4% neutral buffered formalin solution was injected from the pylorus part, and then light fixation was carried out by immersing in the same solution for about 1 hour after ligating the pylorus part. Thereafter, the stomach was cut open along the greater curvature of stomach, and the length (mm) of gastric mucosal lesion was measured using a stereoscopic microscope. Statistical analysis between respective groups was performed by using Wilcoxon rank sum test."}, "[2]": {"details": "thromboembolism patients, CAPRIE trial; cited from earlier work"}, "[3]": {"tested_on": "iron chloride-induced thrombus (abdominal aorta)", "experiment": "ferric chloride-induced thrombosis model in guinea pigs", "format": "in vivo, guinea pig", "details": "for total protein content of thrombi, comparison with control (vehicle administration group): single drug, Student's t-test; for total protein content of thrombi, concomitant administration compared with single administration groups: oral", "method": "Verification of anti-thrombotic action was carried out using a ferric chloride-induced thrombosis model in guinea pigs, by partially modifying the experiment described in “Thrombosis Research” (1990, vol. 60, p. 269-280). Using 0.5% methyl cellulose solution as the vehicle, clopidogrel solution, aspirin suspension and Compound A suspension were prepared. […] Thrombus was induced by the following procedure. Each guinea pig was laparotomized while under pentobarbital anesthesia, and abdominal aorta was carefully detached from the surrounding tissues. […] The filter paper was removed 10 minutes thereafter, followed by 45 minutes of standing under subdued light. Both ends of the injured part of the detached blood vessel were closed with clips, and inside thereof was cut out using scissors to collect the blood vessel. By cutting open the thus collected blood vessel vertically, the thrombi formed in the blood vessel were taken out using a pair of tweezers and dissolved in 0.5 mol/1 of NaOH. Protein concentration was determined using DC protein assay kit (mfd. by BIO-RAD Laboratories) and in accordance with the protocols. Using total protein content of the formed thrombi as the index of anti-thrombotic effect, Statistical analysis between respective groups was performed by using Student's t-test."}, "[4]": {"details": "clopidogrel combined with aspirin, cited from earlier work"}, "COX-2": {"biological_target": "T1, COX-2 (Cavia porcellus, UniProt P70682)", "T1 construct": "The sodium citrate-added whole blood was mixed with LPS to a final concentration of 100 μg/ml, incubated at 37° C. for 24 hours; from tissue; host or cells: citrated whole blood of male Hartley guinea pigs, stimulated with LPS", "T1 sequence (P70682 18-604)": "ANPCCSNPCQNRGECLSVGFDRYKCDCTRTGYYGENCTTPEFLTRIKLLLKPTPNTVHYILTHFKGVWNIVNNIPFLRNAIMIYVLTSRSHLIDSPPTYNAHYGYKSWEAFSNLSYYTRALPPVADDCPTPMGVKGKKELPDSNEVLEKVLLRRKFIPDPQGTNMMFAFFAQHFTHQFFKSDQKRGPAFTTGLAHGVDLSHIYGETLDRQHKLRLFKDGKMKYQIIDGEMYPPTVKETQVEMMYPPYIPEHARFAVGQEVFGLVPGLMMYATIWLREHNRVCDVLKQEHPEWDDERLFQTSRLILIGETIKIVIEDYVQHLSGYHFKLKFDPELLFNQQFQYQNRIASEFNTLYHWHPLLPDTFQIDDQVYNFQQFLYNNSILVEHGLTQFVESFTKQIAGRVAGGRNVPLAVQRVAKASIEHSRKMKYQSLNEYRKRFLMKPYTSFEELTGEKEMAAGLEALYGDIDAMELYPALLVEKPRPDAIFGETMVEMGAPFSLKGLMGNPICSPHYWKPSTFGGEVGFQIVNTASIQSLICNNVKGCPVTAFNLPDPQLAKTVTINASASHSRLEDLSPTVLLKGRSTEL", "experiment": "LPS-induced Prostaglandin E2 (PGE2) production inhibition using guinea pig whole blood after oral administration", "format": "in vivo", "details": "read-out: inhibitory rate of LPS-induced PGE2 production relative to the vehicle group", "procedure": "Examination on the selectivity of inhibitory effect on Cyclooxygenase (COX)-½ was carried out based on, as indexes, the coagulation-induced Thromboxane B2 (TXB2) production inhibition (COX-1 inhibition) and the LPS-induced Prostaglandin E2 (PGE2) production inhibition using guinea pig whole blood. As the vehicle, 0.5% methyl cellulose solution was used. […] On the other hand, as the vehicle administration group, clopidogrel was orally administered 2 hours before the blood collection, and the vehicle 1 hour before thereof. Each guinea pig was laparotomized while under ether anesthesia, 4 ml of blood was collected from the abdominal aorta, and 1 ml thereof was put into an anticoagulant-un-added tube and allowed to stand still and then 3 ml thereof was put into a tube charged with 300 μl of sodium citrate, followed by tipping mixing. […] PGE2 concentration in the buffer was measured using a PGE2 EIA Kit (mfd. by Cayman Chemicals). Inhibitory rate of each of the TXB2 concentration and PGE2 concentration relative to the vehicle group was calculated using a calculation formula [100-(drug administration group concentration/solvent administration concentration)×100 (%)], and significant difference from the vehicle group was tested using Student's t-test."}, "COX-1": {"biological_target": "T2, COX-1 (Cavia porcellus, UniProt H0V9X9)", "T2 construct": "from tissue; host or cells: whole blood from the abdominal aorta of male Hartley guinea pigs", "T2 sequence (H0V9X9 25-553)": "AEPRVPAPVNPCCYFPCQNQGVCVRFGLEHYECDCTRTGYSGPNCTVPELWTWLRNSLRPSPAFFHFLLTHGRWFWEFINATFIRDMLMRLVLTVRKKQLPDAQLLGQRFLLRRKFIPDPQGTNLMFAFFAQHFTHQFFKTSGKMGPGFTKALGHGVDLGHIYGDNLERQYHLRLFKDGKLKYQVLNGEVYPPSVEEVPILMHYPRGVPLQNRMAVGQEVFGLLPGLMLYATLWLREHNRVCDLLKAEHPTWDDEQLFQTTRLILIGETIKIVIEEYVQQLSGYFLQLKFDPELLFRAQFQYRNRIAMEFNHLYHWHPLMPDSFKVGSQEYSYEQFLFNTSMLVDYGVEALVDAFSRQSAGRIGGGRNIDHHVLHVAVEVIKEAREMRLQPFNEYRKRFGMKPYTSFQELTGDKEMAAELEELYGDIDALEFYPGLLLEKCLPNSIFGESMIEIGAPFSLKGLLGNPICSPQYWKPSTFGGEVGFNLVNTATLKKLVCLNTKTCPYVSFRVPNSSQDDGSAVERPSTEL", "experiment": "coagulation-induced Thromboxane B2 (TXB2) production inhibition using guinea pig whole blood after oral administration", "format": "in vivo", "details": "concomitant use with 1 mg/kg of clopidogrel, read-out: inhibitory rate of coagulation-induced TXB2 production relative to the vehicle group", "method": "Examination on the selectivity of inhibitory effect on Cyclooxygenase (COX)-½ was carried out based on, as indexes, the coagulation-induced Thromboxane B2 (TXB2) production inhibition (COX-1 inhibition) and the LPS-induced Prostaglandin E2 (PGE2) production inhibition using guinea pig whole blood. As the vehicle, 0.5% methyl cellulose solution was used. By dissolving clopidogrel and suspending aspirin and Compound A therein, clopidogrel was orally administered 2 hours before the blood collection, and aspirin and Compound A 1 hour before thereof, to male Hartley guinea pigs which had been subjected to fasting (drug administered groups). On the other hand, as the vehicle administration group, clopidogrel was orally administered 2 hours before the blood collection, and the vehicle 1 hour before thereof. […] TXB2 concentration in the serum was measured using a TXB2 EIA Kit (mfd. by Cayman Chemicals). […] PGE2 concentration in the buffer was measured using a PGE2 EIA Kit (mfd. by Cayman Chemicals). Inhibitory rate of each of the TXB2 concentration and PGE2 concentration relative to the vehicle group was calculated using a calculation formula [100-(drug administration group concentration/solvent administration concentration)×100 (%)], and significant difference from the vehicle group was tested using Student's t-test."}, "[5]": {"details": "cited from earlier work"}},
  "note": "Like-named read-outs stand apart in the source and are kept apart here.",
  "data": [
    {"smiles": "COC(=O)[C@H](c1ccccc1Cl)N1CCc2sccc2C1", "note": "[clopidogrel, methyl (+)-(S)-2-(2-chlorophenyl)-2-(4,5,6,7-tetrahydrothieno[3,2-c]pyridin-5-yl)acetate]", "values": [
      {"measurement": "primary prevention effect", "setting": "[1]; low risk patients", "result": "usefulness of the combination group was not found"},
      {"measurement": "secondary thrombotic event inhibition effect", "setting": "[1]; patients of ischemic diseases", "result": "significant secondary thrombotic event inhibition effect"},
      {"measurement": "gastric mucosal lesion (length)", "setting": "gastric mucosa; 100 mg/kg oral, single drug", "result": "a clear action for gastric mucosa cannot be confirmed"},
      {"measurement": "event onset ratio", "setting": "[2]", "result": 5.83, "unit": "%/year"},
      {"measurement": "lowering of the event onset ratio based on aspirin", "setting": "[2]", "result": 8.7, "unit": "%"},
      {"measurement": "total protein content of thrombi, comparison with control (vehicle administration group)", "setting": "[3]; clopidogrel 1 mg/kg orally 2 hours before thrombus induction", "result": "statistically significant difference"},
      {"measurement": "reduction of event ratio in combination use group in comparison with the aspirin alone group", "setting": "[4]; non-ST increase ACS patients", "result": 20, "unit": "%"},
      {"measurement": "hemorrhagic side effects in the combination use group", "setting": "[4]", "result": "significantly increased"}
    ]},
    {"smiles": "COc1ccc(-c2nc(OC)nn2-c2ccc(OC)cc2)cc1", "note": "[Compound A, 3-methoxy-1,5-bis(4-methoxyphenyl)-1H-1,2,4-triazole]", "values": [
      {"measurement": "gastric mucosal lesion (length)", "setting": "gastric mucosa; 100 mg/kg oral, single drug", "result": "a clear action for gastric mucosa cannot be confirmed"},
      {"measurement": "gastric mucosal lesion (length)", "setting": "gastric mucosa; Compound A 100 mg/kg concomitantly with clopidogrel 3 mg/kg, oral", "result": "a clear action for gastric mucosa cannot be confirmed"},
      {"measurement": "total protein content of thrombi, compared with concomitant administration group of clopidogrel and aspirin", "setting": "[3]; 3 mg/kg Compound A + 1 mg/kg clopidogrel vs 300 mg/kg aspirin + 1 mg/kg clopidogrel", "result": "statistically significant difference from a concomitant administration group of clopidogrel and aspirin"},
      {"measurement": "total protein content of thrombi, concomitant administration compared with single administration groups", "setting": "[3]; 3 mg/kg Compound A concomitantly with 1 mg/kg clopidogrel", "result": "statistically significant difference from the clopidogrel single administration group (CLO 1) and Compound A single administration group (Comp A 3)"},
      {"measurement": "total protein content of thrombi, comparison with control (vehicle administration group)", "setting": "[3]; Compound A 3 mg/kg orally 1 hour before thrombus induction", "result": "statistically significant difference"},
      {"measurement": "inhibition at 3 mg/kg", "setting": "COX-2; 3 mg/kg Compound A orally, concomitant use with 1 mg/kg of clopidogrel", "result": 10.1, "unit": "%"},
      {"measurement": "inhibition at 3 mg/kg", "setting": "COX-1; 3 mg/kg Compound A orally", "result": 82.1, "unit": "%"}
    ]},
    {"smiles": "CC(=O)Oc1ccccc1C(=O)O", "note": "[aspirin]", "values": [
      {"measurement": "gastric mucosal lesion (length)", "setting": "gastric mucosa; 300 mg/kg oral, single drug", "result": "Gastric mucosal damage was clearly formed"},
      {"measurement": "gastric mucosal damage at concomitant administration with clopidogrel compared with aspirin alone", "setting": "gastric mucosa; aspirin 300 mg/kg + clopidogrel 3 mg/kg vs aspirin 300 mg/kg alone", "result": "becomes worse"},
      {"measurement": "gastric mucosal lesion (length)", "setting": "gastric mucosa; aspirin 300 mg/kg concomitantly with clopidogrel 3 mg/kg, oral", "result": "Gastric mucosal damage was also clearly induced"},
      {"measurement": "event onset ratio", "setting": "[2]", "result": 5.32, "unit": "%/year"},
      {"measurement": "total protein content of thrombi, concomitant administration compared with single administration groups", "setting": "[3]; 300 mg/kg aspirin concomitantly with 1 mg/kg clopidogrel", "result": "significant difference from the clopidogrel single administration group (CLO 1), but a significant difference was not found in comparison with the aspirin single administration group (ASA 300)"},
      {"measurement": "total protein content of thrombi, comparison with control (vehicle administration group)", "setting": "[3]; aspirin 300 mg/kg orally 1 hour before thrombus induction", "result": "statistically significant difference"},
      {"measurement": "event inhibition ratio", "setting": "[5]; 75 mg or less, meta-analysis", "result": 13, "unit": "%"},
      {"measurement": "event inhibition ratio", "setting": "[5]; administration of from 75 to 150 mg, meta-analysis", "result": 32, "unit": "%"},
      {"measurement": "event inhibition ratio", "setting": "[5]; administration of from 160 to 325 mg, meta-analysis", "result": 26, "unit": "%"},
      {"measurement": "event inhibition ratio", "setting": "[5]; administration of from 500 to 1500 mg, meta-analysis", "result": 19, "unit": "%"},
      {"measurement": "event inhibition ratio", "setting": "[5]; high risk patients, low dose aspirin", "result": "about 25%"},
      {"measurement": "inhibition at 300 mg/kg", "setting": "COX-2", "result": 90.4, "unit": "%"},
      {"measurement": "inhibition at 300 mg/kg", "setting": "COX-1; 300 mg/kg aspirin orally", "result": 100, "unit": "%"}
    ]}
  ]
}
